Measured values published in PubChem BioAssay (NCI).
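How tested: cells in 96-well plates exposed to compound for 48 hours at five concentrations. Definition used: TGI = concentration required for complete inhibition of growth.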

Key:
Experiment in all cases: NCI tumour cell line growth inhibition, 48 h
[1] = test system: HCT-116 colon
[2] = test system: HT29 colon
[3] = test system: DLD-1 colon
[4] = test system: HOP-18 NSCLC
[5] = test system: M14 melanoma
[6] = test system: HCC-2998 colon
[7] = test system: SF-268 CNS
[8] = test system: A498 renal
[9] = test system: UO-31 renal
[10] = test system: CAKI-1 renal
[11] = test system: HCT-15 colon
[12] = test system: HOP-62 NSCLC
[13] = test system: NCI-H226 lung
[14] = test system: HL-60(TB) leukemia
[15] = test system: M19-MEL melanoma
[16] = test system: SNB-75 CNS
[17] = test system: SK-MEL-5 melanoma
[18] = test system: DMS 114 small cell lung
[19] = test system: OVCAR-4 ovarian
[20] = test system: SF-539 CNS
[21] = test system: UACC-257 melanoma
[22] = test system: MOLT-4 leukemia
[23] = test system: KM20L2 colon
[24] = test system: UACC-62 melanoma
[25] = test system: ACHN renal
[26] = test system: NCI-H460 lung
[27] = test system: K-562 leukemia
[28] = test system: MALME-3M melanoma
[29] = test system: SNB-78 CNS
[30] = test system: COLO 205 colon
[31] = test system: HOP-92 NSCLC
[32] = test system: SNB-19 CNS
[33] = test system: RPMI-8226 leukemia
[34] = test system: XF 498 CNS
[35] = test system: CCRF-CEM leukemia
[36] = test system: SK-MEL-2 melanoma
[37] = test system: NCI-H522 lung
[38] = test system: LOX IMVI melanoma
[39] = test system: OVCAR-8 ovarian
[40] = test system: SN12C renal
[41] = test system: RXF 393 renal
[42] = test system: SR leukemia
[43] = test system: NCI-H23 lung
[44] = test system: KM12 colon
[45] = test system: EKVX NSCLC
[46] = test system: DMS 273 small cell lung
[47] = test system: TK-10 renal
[48] = test system: SK-OV-3 ovarian
[49] = test system: LXFL 529 NSCLC
[50] = test system: OVCAR-5 ovarian
[51] = test system: U251 CNS
[52] = test system: RXF-631 renal
[53] = test system: A549 NSCLC
[54] = test system: SW-620 colon
[55] = test system: 786-0 renal
[56] = test system: IGROV1 ovarian
[57] = test system: SF-295 CNS
[58] = test system: OVCAR-3 ovarian
[59] = test system: SK-MEL-28 melanoma

C[Si](C)(C)/N=C1\N2C(=NC1(C(F)(F)F)C(F)(F)F)Sc1ccccc12 gave a TGI [1] of over 50 µM, a TGI [2] of over 50 µM and a TGI [3] of over 50 µM. It also gave a TGI [4] of over 50 µM, a TGI [5] of over 50 µM and a TGI [6] of over 50 µM. The TGI [7] was over 50 µM, the TGI [8] was over 50 µM and the TGI [9] was over 50 µM. It also gave a TGI [10] of over 50 µM, a TGI [11] of over 50 µM and a TGI [12] of over 50 µM. For the same molecule, the TGI [13] was over 50 µM, the TGI [14] was over 50 µM and the TGI [15] was over 50 µM. The TGI [16] was over 50 µM, the TGI [17] was over 50 µM and the TGI [18] was over 50 µM. The TGI [19] was over 50 µM, the TGI [20] was over 50 µM and the TGI [21] was over 50 µM. For the same molecule, the TGI [22] was over 50 µM, the TGI [23] was over 50 µM and the TGI [24] was over 50 µM. It also gave a TGI [25] of over 50 µM, a TGI [26] of over 50 µM and a TGI [27] of over 50 µM. The TGI [28] was over 50 µM, the TGI [29] was over 50 µM and the TGI [30] was over 50 µM. It also gave a TGI [31] of over 50 µM, a TGI [32] of over 50 µM and a TGI [33] of over 50 µM. For the same molecule, the TGI [34] was over 50 µM, the TGI [35] was over 50 µM and the TGI [36] was over 50 µM. The TGI [37] was over 50 µM, the TGI [38] was over 50 µM and the TGI [39] was over 50 µM. The TGI [40] was over 50 µM, the TGI [41] was over 50 µM and the TGI [42] was over 50 µM. It also gave a TGI [43] of over 50 µM, a TGI [44] of over 50 µM and a TGI [45] of over 50 µM. It also gave a TGI [46] of over 50 µM, a TGI [47] of over 50 µM and a TGI [48] of over 50 µM. The TGI [49] was over 50 µM, the TGI [50] was over 50 µM and the TGI [51] was over 50 µM. The TGI [52] was over 50 µM, the TGI [53] was over 50 µM and the TGI [54] was over 50 µM. It also gave a TGI [55] of over 50 µM, a TGI [56] of over 50 µM and a TGI [57] of over 50 µM. For the same molecule, the TGI [58] was over 50 µM.
With Brc1ccc2c(C3CN[C@@H](c4c[nH]c5cc(Br)ccc45)CN3)c[nH]c2c1 (some centres not stated) the TGI [1] was 3.55 µM, the TGI [2] was 9.52 µM and the TGI [3] was 12.8 µM. For the same molecule, the TGI [4] was 24.6 µM, the TGI [5] was 9.6 µM and the TGI [6] was 5.43 µM. The TGI [7] was 19.1 µM, the TGI [8] was 9.36 µM and the TGI [9] was 18.1 µM. It also gave a TGI [10] of 25.9 µM, a TGI [11] of 13.6 µM and a TGI [12] of 16.2 µM. It also gave a TGI [13] of 7.96 µM, a TGI [14] of 7.72 µM and a TGI [59] of 23.8 µM. The TGI [15] was 19.4 µM, the TGI [16] was 31.7 µM and the TGI [17] was 14.3 µM. The TGI [18] was 5.14 µM, the TGI [19] was 13.6 µM and the TGI [20] was 12.9 µM. For the same molecule, the TGI [21] was 23.4 µM, the TGI [22] was 11 µM and the TGI [23] was 4.96 µM. For the same molecule, the TGI [24] was 17.5 µM, the TGI [25] was 12.6 µM and the TGI [26] was 3.85 µM. It also gave a TGI [27] of 9.4 µM, a TGI [28] of 26.5 µM and a TGI [29] of 22.7 µM. For the same molecule, the TGI [30] was 3.49 µM, the TGI [31] was 9.29 µM and the TGI [32] was 22.4 µM. The TGI [33] was 5.16 µM, the TGI [34] was 18.7 µM and the TGI [35] was 11.7 µM. It also gave a TGI [36] of 10.9 µM, a TGI [37] of 5.6 µM and a TGI [38] of 9.03 µM. It also gave a TGI [39] of 15.9 µM, a TGI [40] of 17.7 µM and a TGI [41] of 4.41 µM. For the same molecule, the TGI [42] was 3.08 µM, the TGI [43] was 7.13 µM and the TGI [44] was 3.47 µM. The TGI [45] was 21.9 µM, the TGI [46] was 5.13 µM and the TGI [47] was 20.8 µM. The TGI [48] was 16.6 µM, the TGI [49] was 6.86 µM and the TGI [50] was 10.1 µM. The TGI [51] was 18.5 µM, the TGI [52] was 12.9 µM and the TGI [53] was 9.02 µM. It also gave a TGI [54] of 9.05 µM, a TGI [55] of 9.91 µM and a TGI [56] of 23.6 µM. For the same molecule, the TGI [57] was 12.4 µM and the TGI [58] was 19.7 µM.
